Experimental data as given in ChEMBL document CHEMBL2385047, “Synthesis and antifungal evaluation of pentyloxyl-diphenylisoxazoloyl pneumocandins and echinocandins” (Bioorg Med Chem Lett, 2013).
Values after ≈ are worked out from the molar mass of the structure shown. Numbered stars: 1 amine (or outer) side, 2 acyl side, 3 side chain; on linkers, the order of the positions; unused ones are H or OH. Bridge positions count the residues as written; N and C are the ends. Square brackets hold non-standard residues; d marks the D form. Peptide text beside a SMILES is read from it. * marks the point of attachment. Orn(4R-OH,5R-OH) = O=C([C@H](C[C@@H](O)[C@@H](O)N[*:3])N[*:1])[*:2]; Tetradecanoyl(10R,12S-Me2) = CC[C@H](C)C[C@H](C)CCCCCCCCC(=O)*; hTyr(3S-OH,4S-OH) = N[C@H](C(=O)O)[C@H](O)[C@@H](O)c1ccc(O)cc1; Pro(3S-OH,4S-Me) = C[C@H]1CN[C@H](C(=O)O)[C@H]1O; X1 = CCCCCOc1ccc(-c2cc(-c3ccc(C(=O)*)cc3)no2)cc1; Gln(3R-OH) = NC(=O)C[C@@H](O)[C@H](N)C(=O)O; Pro(3S-OH) = O=C(O)[C@H]1NCC[C@@H]1O; Hyp = O=C(O)[C@@H]1C[C@@H](O)CN1

Legend:
Candida albicans [1] = test: Antifungal activity against Candida albicans CAI4-R1 assessed as growth inhibition after 24 hrs by NCCLS broth microdilution method; assay type: functional; settings: CAI4-R1, 24 h; for MIC: read-out: MIC100
Aspergillus fumigatus = test: Antifungal activity against Aspergillus fumigatus MF5668 caspofungin spontaneous resistance mutant assessed as growth inhibition after 24 hrs by NCCLS broth microdilution method; assay type: functional; settings: MF5668, 24 h; for minimal effective concentration: read-out: MEC
Escherichia coli = test: Antibacterial activity against Escherichia coli ATCC 25922 assessed as growth inhibition after 24 hrs by NCCLS broth microdilution method; assay type: functional; settings: ATCC 25922, 24 h, read-out: MIC100
Candida albicans [2] = test: Antifungal activity against wild type Candida albicans CAI4 assessed as growth inhibition after 24 hrs by NCCLS broth microdilution method; assay type: functional; settings: CAI4, 24 h; for MIC: read-out: MIC100
[3] = tested on: Meyerozyma guilliermondii; test: Antifungal activity against wild type Candida guilliermondii CLY308 assessed as growth inhibition after 24 hrs by NCCLS broth microdilution method; assay type: functional; settings: CLY308, 24 h; for MIC: read-out: MIC100
Candida albicans [4] = test: Antifungal activity against Candida albicans NR3 assessed as growth inhibition after 24 hrs by NCCLS broth microdilution method; assay type: functional; settings: NR3, 24 h; for MIC: read-out: MIC100
Clavispora lusitaniae = test: Antifungal activity against wild type Candida lusitaniae MY1396 assessed as growth inhibition after 24 hrs by NCCLS broth microdilution method; assay type: functional; settings: MY1396, 24 h; for MIC: read-out: MIC100
Candida parapsilosis = test: Antifungal activity against wild type Candida parapsilosis ATCC 22019 assessed as growth inhibition after 24 hrs by NCCLS broth microdilution method; assay type: functional; settings: Lodderomyces parapsilosis, ATCC 22019, 24 h; for MIC: read-out: MIC100
Candida albicans [5] = test: Antifungal activity against wild type Candida albicans MY1055 assessed as growth inhibition after 24 hrs by NCCLS broth microdilution method; assay type: functional; settings: MY1055, 24 h; for MIC: read-out: MIC100
Nakaseomyces glabratus = test: Antifungal activity against wild type Candida glabrata MY1381 assessed as growth inhibition after 24 hrs by NCCLS broth microdilution method; assay type: functional; settings: MY1381, 24 h; for MIC: read-out: MIC100
Cryptococcus neoformans = test: Antifungal activity against capsular wild type Cryptococcus neoformans MY2061 assessed as growth inhibition after 24 hrs by NCCLS broth microdilution method; assay type: functional; settings: MY2061, 24 h, read-out: MIC100
Beta-1,3-glucan synthase = target: T1, Beta-1,3-glucan synthase (Candida albicans, UniProt O13383); test: Inhibition of wild type Candida albicans 1,3-beta-D-glucan synthase using UDP[6,3H]-glucose as substrate after 60 mins by liquid scintillation counting analysis
T1 sequence (O13383 whole entry): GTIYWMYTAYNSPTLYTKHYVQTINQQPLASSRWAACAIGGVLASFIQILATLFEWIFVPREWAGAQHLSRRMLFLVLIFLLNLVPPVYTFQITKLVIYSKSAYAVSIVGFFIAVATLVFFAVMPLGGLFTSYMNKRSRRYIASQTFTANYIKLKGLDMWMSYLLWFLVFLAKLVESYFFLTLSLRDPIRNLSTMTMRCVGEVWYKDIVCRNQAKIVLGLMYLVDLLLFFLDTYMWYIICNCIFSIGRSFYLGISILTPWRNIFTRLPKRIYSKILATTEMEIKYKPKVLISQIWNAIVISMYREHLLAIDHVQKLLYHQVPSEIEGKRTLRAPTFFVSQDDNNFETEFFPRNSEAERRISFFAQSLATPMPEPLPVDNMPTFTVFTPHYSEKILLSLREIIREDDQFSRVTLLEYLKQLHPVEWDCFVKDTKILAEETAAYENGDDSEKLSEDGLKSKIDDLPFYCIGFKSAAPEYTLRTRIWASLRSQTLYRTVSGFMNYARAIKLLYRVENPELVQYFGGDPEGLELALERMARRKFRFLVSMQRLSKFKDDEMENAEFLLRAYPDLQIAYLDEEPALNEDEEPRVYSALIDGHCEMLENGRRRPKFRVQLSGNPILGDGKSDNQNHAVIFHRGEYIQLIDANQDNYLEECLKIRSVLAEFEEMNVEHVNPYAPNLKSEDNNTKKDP

Pichia kudriavzevii = test: Antifungal activity against wild type Candida krusei CLY549 assessed as growth inhibition after 24 hrs by NCCLS broth microdilution method; assay type: functional; settings: CLY549, 24 h; for MIC: read-out: MIC100
Candida albicans [6] = test: Antifungal activity against wild type Candida albicans MY1055 assessed as growth inhibition after 24 hrs by NCCLS broth microdilution method in presence of human serum; assay type: functional; settings: MY1055, 24 h; for MIC: read-out: MIC100
Staphylococcus aureus = test: Antibacterial activity against methicillin-sensitive Staphylococcus aureus MB2865 assessed as growth inhibition after 24 hrs by NCCLS broth microdilution method; assay type: functional; settings: MB2865, 24 h, read-out: MIC100
Candida albicans [7] = test: Antifungal activity against Candida albicans MY1055 infected in DBA/2 mouse assessed as reduction of log CFU in kidney administered 30 mins as ip tid post infection measured after 24 hrs; assay type: functional

Row | SMILES | MIC80 (Candida albicans [1]) [mg/L] | MIC (Candida albicans [1]) [mg/L] | MIC80 (Aspergillus fumigatus) [mg/L] | minimal effective concentration (Aspergillus fumigatus) [µg/mL] | MIC (Escherichia coli) [mg/L] | MIC80 (Candida albicans [2]) [mg/L] | MIC (Candida albicans [2]) [mg/L] | MIC80 [3] [mg/L] | MIC [3] [mg/L] | MIC (Candida albicans [4]) [mg/L] | MIC80 (Clavispora lusitaniae) [mg/L] | MIC (Clavispora lusitaniae) [mg/L] | MIC80 (Candida parapsilosis) [mg/L] | MIC (Candida parapsilosis) [mg/L] | MIC80 (Candida albicans [5]) [mg/L] | MIC (Candida albicans [5]) [mg/L] | MIC (Nakaseomyces glabratus) [mg/L] | MIC (Cryptococcus neoformans) [mg/L] | MIC80 (Pichia kudriavzevii) [mg/L] | MIC (Pichia kudriavzevii) [mg/L] | further results
1 | CCCCCOc1ccc(-c2cc(-c3ccc(C(=O)N[C@H]4C[C@@H](O)[C@@H](O)NC(=O)[C@@H]5[C@@H](O)[C@@H](C)CN5C(=O)[C@H]([C@@H](C)O)NC(=O)[C@H]([C@H](O)[C@@H](O)c5ccc(O)cc5)NC(=O)[C@@H]5C[C@@H](O)CN5C(=O)[C@H]([C@@H](C)O)NC4=O)cc3)no2)cc1 (X1-[Orn(4R-OH,5R-OH)]T[Hyp][hTyr(3S-OH,4S-OH)]T[Pro(3S-OH,4S-Me)]; lactam 1-C) | 1 (≈ 0.884 µM) | 8 (≈ 7.07 µM) | < 0.03 | > 32 | > 32 | < 0.03 | 0.5 (≈ 0.442 µM) | 2 (≈ 1.77 µM) | 4 (≈ 3.54 µM) | 16 (≈ 14.1 µM) | 0.125 (≈ 0.111 µM) | 1 (≈ 0.884 µM) | 4 (≈ 3.54 µM) | 32 (≈ 28.3 µM) | 0.06 (≈ 0.053 µM) | 0.5 (≈ 0.442 µM) | 1 (≈ 0.884 µM) | > 32 | 0.5 (≈ 0.442 µM) | 1 (≈ 0.884 µM) | MIC80 (Candida albicans [4]): 4 mg/L (≈ 3.54 µM); MIC80 (Nakaseomyces glabratus): 0.25 mg/L (≈ 0.221 µM); IC50 (Beta-1,3-glucan synthase): 0.0044 µM; MIC80 (Candida albicans [6]): 0.5 mg/L; MIC (Candida albicans [6]): 2 mg/L; MIC (Staphylococcus aureus): > 32 mg/L
2 | CCCCCOc1ccc(-c2cc(-c3ccc(C(=O)N[C@H]4C[C@@H](O)[C@@H](O)NC(=O)[C@@H]5[C@@H](O)[C@@H](C)CN5C(=O)[C@H]([C@H](O)CC(N)=O)NC(=O)[C@H]([C@H](O)[C@@H](O)c5ccc(O)cc5)NC(=O)[C@@H]5C[C@@H](O)CN5C(=O)[C@H]([C@@H](C)O)NC4=O)cc3)no2)cc1 (X1-[Orn(4R-OH,5R-OH)]T[Hyp][hTyr(3S-OH,4S-OH)][Gln(3R-OH)][Pro(3S-OH,4S-Me)]; lactam 1-C) | 0.5 (≈ 0.426 µM) | 2 (≈ 1.7 µM) | < 0.03 | > 32 | > 32 | < 0.03 | 0.06 (≈ 0.0511 µM) | 0.5 (≈ 0.426 µM) | 2 (≈ 1.7 µM) | 4 (≈ 3.41 µM) | < 0.03 | 0.125 (≈ 0.106 µM) | 2 (≈ 1.7 µM) | 32 (≈ 27.3 µM) | < 0.03 | 0.06 (≈ 0.0511 µM) | 0.25 (≈ 0.213 µM) | > 32 | 0.125 (≈ 0.106 µM) | 1 (≈ 0.852 µM) | MIC80 (Candida albicans [4]): 2 mg/L (≈ 1.7 µM); ED90 (Candida albicans [7]): 0.12 mg/kg/day; ED99 (Candida albicans [7]): 0.82 mg/kg/day; MIC80 (Nakaseomyces glabratus): 0.06 mg/L (≈ 0.0511 µM); IC50 (Beta-1,3-glucan synthase): 0.035 µM; MIC80 (Candida albicans [6]): 0.25 mg/L; MIC (Candida albicans [6]): 1 mg/L; MIC (Staphylococcus aureus): > 32 mg/L
3 | CC[C@H](C)C[C@H](C)CCCCCCCCC(=O)N[C@H]1C[C@@H](O)[C@@H](O)NC(=O)[C@@H]2[C@@H](O)CCN2C(=O)[C@H]([C@H](O)CC(N)=O)NC(=O)[C@H]([C@H](O)[C@@H](O)c2ccc(O)cc2)NC(=O)[C@@H]2C[C@@H](O)CN2C(=O)[C@H]([C@@H](C)O)NC1=O ({Tetradecanoyl(10R,12S-Me2)}-[Orn(4R-OH,5R-OH)]T[Hyp][hTyr(3S-OH,4S-OH)][Gln(3R-OH)][Pro(3S-OH)]; lactam 1-C) | 16 (≈ 15 µM) | 32 (≈ 30 µM) | 4 (≈ 3.76 µM) | > 32 | > 32 | < 0.03 | 0.5 (≈ 0.469 µM) | 4 (≈ 3.76 µM) | > 32 | > 32 | 1 (≈ 0.939 µM) | 4 (≈ 3.76 µM) | 8 (≈ 7.51 µM) | > 32 | 0.125 (≈ 0.117 µM) | 0.5 (≈ 0.469 µM) | 4 (≈ 3.76 µM) | > 32 | 8 (≈ 7.51 µM) | 32 (≈ 30 µM) | ED90 (Candida albicans [7]): 2.71 mg/kg/day; ED99 (Candida albicans [7]): 13 mg/kg/day; MIC80 (Candida albicans [6]): 16 mg/L; MIC (Candida albicans [6]): 32 mg/L; MIC (Staphylococcus aureus): > 32 mg/L
4 | CC[C@H](C)C[C@H](C)CCCCCCCCC(=O)N[C@H]1C[C@@H](O)[C@@H](O)NC(=O)[C@@H]2[C@@H](O)[C@@H](C)CN2C(=O)[C@H]([C@H](O)CC(N)=O)NC(=O)[C@H]([C@H](O)[C@@H](O)c2ccc(O)cc2)NC(=O)[C@@H]2C[C@@H](O)CN2C(=O)[C@H]([C@@H](C)O)NC1=O ({Tetradecanoyl(10R,12S-Me2)}-[Orn(4R-OH,5R-OH)]T[Hyp][hTyr(3S-OH,4S-OH)][Gln(3R-OH)][Pro(3S-OH,4S-Me)]; lactam 1-C) | 8 (≈ 7.41 µM) | 16 (≈ 14.8 µM) | 4 (≈ 3.71 µM) | > 32 | > 32 | < 0.03 | 0.5 (≈ 0.463 µM) | 4 (≈ 3.71 µM) | 32 (≈ 29.7 µM) | > 32 | 1 (≈ 0.927 µM) | 4 (≈ 3.71 µM) | 8 (≈ 7.41 µM) | > 32 | 0.125 (≈ 0.116 µM) | 0.5 (≈ 0.463 µM) | 4 (≈ 3.71 µM) | > 32 | 4 (≈ 3.71 µM) | 8 (≈ 7.41 µM) | MIC80 (Candida albicans [4]): 32 mg/L (≈ 29.7 µM); ED90 (Candida albicans [7]): 1.15 mg/kg/day; ED99 (Candida albicans [7]): 6.77 mg/kg/day; MIC80 (Nakaseomyces glabratus): 2 mg/L (≈ 1.85 µM); IC50 (Beta-1,3-glucan synthase): 0.0176 µM; MIC80 (Candida albicans [6]): 16 mg/L; MIC (Candida albicans [6]): 32 mg/L; MIC (Staphylococcus aureus): > 32 mg/L
